According to patent publication US20200407370A1, “PEPTIDYLARGININE DEIMINASE INHIBITOR AND USE THEREOF” (Nanjing Transthera Biosciences Co., Ltd., priority 2018, published 2020):

Assays:
Format in all cases: in vitro ADME
[1] = Liver microsomal stability in rat; conditions: rat liver microsomes, 0.5 mg protein/mL, 1 μM compound, 37° C.
Experimental: (§1) Experimental Example 4:Evaluation on Liver Microsomal Stability of the Compound Disclosed Herein in Mouse/Rat
(§2) Objective: To evaluate the liver microsomal stability of the compound disclosed herein in mouse/rat
(§3) An appropriate amount of the compound was precisely weighed and dissolved in DMSO to prepare a 5.0 mM stock solution. 5.0 mM stock solution was diluted to 1.0 mM with DMSO, and then diluted with water to 10 μM, serving as a compound working solution for later use (DMSO content in the reaction system: 0.1% v/v).
as §3, with “methanol” for “DMSO”, “methanol,” for “DMSO,”, “10% methanol-water (v/v) solution” for “water”, “(methanol” for “(DMSO”, “1.1%” for “0.1%”
(§4) • (1) The liver microsomes (20 mg protein/mL) were taken from a −80° C. refrigerator, pre-incubated on a 37° C. water bath thermostatic oscillator for 3 min, and thawed for use. • (2) A mixed incubation system solution (without compounds or […]) was prepared according to the proportion of “composition of the incubation system” described above and pre-incubated on a 37° C. water bath thermostatic oscillator for 2 min. • (3) Control group (without β-NADPH): 30 μL of water and 30 μL of compound working solution (10 μM) were added to 240 μL of the mixed incubation system solution in step (2), and the mixture was vortexed for 30 s and mixed. The total volume of the mixture was 300 μL. The sample was duplicated. The reaction solution was placed on a 37° C. water bath thermostatic oscillator for incubation, and timing was started. Samples were collected at 0 min and 60 min. • (4) Sample group: 70 μL of β-NADPH solution (10 mM) and 70 μL of compound working solution (10 μM) were added to 560 μL of the mixed incubation system solution in step (2), and the total volume of the mixture was 700 μL. The mixture was vortexed for 30 s and mixed. The sample was duplicated. The reaction solution was placed on a 37° C. water bath thermostatic oscillator for incubation, and timing was started. Samples were collected at 0 min, 5 min, 10 min, 20 min, 30 min and 60 min after timing. • (5) The reaction solution was vortexed for 3 min, and centrifuged at 12,000 rpm for 5 min. • (6) 50 μL of the supernatant was added to 150 μL of water, and the resulting solution was vortexed and mixed before LC/MS/MS analysis.
(§5) The half-life (t1/2) and clearance (Cl) were calculated using the following first-order kinetic formula:
(§6) Vd=1/protein content in liver microsomes
(§7) Note: k denotes the slope of the logarithm of the remaining amount of a compound vs. time, Vd denotes apparent volume of distribution, C0 denotes drug concentration at 0 h, Ct denotes drug concentration at time t, t denotes time, e denotes natural number, and Clint denotes intrinsic clearance.

[2] = Liver microsomal stability in mouse; conditions: mouse liver microsomes, 0.5 mg protein/mL, 1 μM compound, 37° C.
Experimental: as §1, §2, §3
as §3, with “methanol” for “DMSO”, “methanol,” for “DMSO,”, “10% methanol-water (v/v) solution” for “water”, “(methanol” for “(DMSO”, “1.1%” for “0.1%”
as §4, §5, §6, §7

[3] = Liver microsomal stability in canine; conditions: dog; canine liver microsomes, 0.5 mg protein/mL, 1 μM compound, 37° C.
Experimental: (§8) Experimental Example 2: Evaluation on Liver Microsomal Stability of the Compound Disclosed Herein in Human/Canine
as §3
(§9) • (1) The liver microsomes (20 mg protein/mL) were taken from a −80° C. refrigerator, pre-incubated on a 37° C. water bath thermostatic oscillator for 3 min, and thawed for use. • (2) A mixed incubation system solution (without compounds or β-NADPH) was prepared according to the proportion of “composition of the incubation system” described above and pre-incubated on a 37° C. water bath thermostatic oscillator for 2 min. • (3) Control group (without β-NADPH): 30 μL of water and 30 μL of compound working solution (10 μM) were added to 240 μL of the mixed incubation system solution in step (2), and the mixture was vortexed for 30 s and mixed. The total volume of the mixture was 300 μL. The sample was duplicated. The reaction solution was placed on a 37° C. water bath thermostatic oscillator for incubation, and timing was started. Samples were collected at 0 min and 60 min. • (4) Sample group: 70 μL of β-NADPH solution (10 mM) and 70 μL of compound working solution (10 μM) were added to 560 μL of the mixed incubation system solution in step (2), and the total volume of the mixture was 700 μL. The mixture was vortexed for 30 s and mixed. The sample was duplicated. The reaction solution was placed on a 37° C. water bath thermostatic oscillator for incubation, and timing was started. Samples were collected at 0 min, 5 min, 10 min, 20 min, 30 min and 60 min after timing. • (5) The reaction solution was vortexed for 3 min, and centrifuged at 12,000 rpm for 5 min. • (6) 50 μL of the supernatant was added to 150 μL of water, and the resulting solution was vortexed and mixed before LC/MS/MS analysis.
as §5, §6, §7

[4] = Liver microsomal stability in human; conditions: human liver microsomes, 0.5 mg protein/mL, 1 μM compound, 37° C.
Experimental: as §8, §3, §9, §5, §6, §7

half-life at 1 μM [1] [h]	microsomal CLint at 1 μM [1] [µL/min/mg]	half-life at 1 μM [2] [h]	microsomal CLint at 1 μM [2] [µL/min/mg]	Structure (SMILES)	further results
5.25	4.4	11.6	2	COc1cc(C(=O)N2CCC[C@@H](N)C2)cc2nc(-c3cc4ccsc4n3CC(C)C)n(C)c12 [Compound 20, (R)-(3-aminopiperidin-1-yl)(2-(6-isobutyl-6H-thieno[2,3-b]pyrrol-5-yl)-7-methoxy-1-methyl-1H-benzo[d]imidazol-5-yl)methanone]	–
–	–	3.98	5.8	COc1cc(C(=O)N2CCC[C@@H](N)C2)cc2nc(-c3cc4cc(C)sc4n3CC3CC3)n(C)c12 [Compound 23, (R)-(3-aminopiperidin-1-yl)(2-(6-(cyclopropylmethyl)-2-methyl-6H-thieno[2,3-b]pyrrol-5-yl)-7-methoxy-1-methyl-1H-benzo[d]imidazol-5-yl)methanone]	–
3.98	5.8	–	–	CCn1c(-c2nc3cc(C(=O)N4CCC[C@@H](N)C4)cc(OC)c3n2C)cc2ccsc21 [Compound 3, (R)-(3-aminopiperidin-1-yl)(2-(6-ethyl-6H-thieno[2,3-b]pyrrol-5-yl)-7-methoxy-1-methyl-1H-benzo[d]imidazol-5-yl)methanone]	half-life at 1 μM [4]: 4.62 h; microsomal CLint at 1 μM [4]: 5 µL/min/mg

The remaining lines, values behind:

Structure (SMILES)	half-life at 1 μM [1] [h]	microsomal CLint at 1 μM [1] [µL/min/mg]	half-life at 1 μM [2] [h]	microsomal CLint at 1 μM [2] [µL/min/mg]	further results
CCn1c(-c2nc3cc(C(=O)N4CCC[C@@H](N)C4)cc(OC)c3n2C)cc2cc(C)sc21 [Compound 9, (R)-(3-aminopiperidin-1-yl)(2-(6-ethyl-2-methyl-6H-thieno[2,3-b]pyrrol-5-yl)-7-methoxy-1-methyl-1H-benzo[d]imidazol-5-yl)methanone]	–	–	–	–	t1/2 [1]: →∞; half-life at 1 μM [3]: 23.1 h; microsomal CLint at 1 μM [3]: 1 µL/min/mg
COc1cc(C(=O)N2CCC[C@@H](N)C2)cc2nc(-c3cc4ccsc4n3CC3CC3)n(C)c12 [Compound 18, (R)-(3-aminopiperidin-1-yl)(2-(6-(cyclopropylmethyl)-6H-thieno[2,3-b]pyrrol-5-yl)-7-methoxy-1-methyl-1H-benzo[d]imidazol-5-yl)methanone]	–	–	4.13	5.6	half-life at 1 μM [4]: 3.5 h; microsomal CLint at 1 μM [4]: 6.6 µL/min/mg
COc1cc(C(=O)N2CCC[C@@H](N)C2)cc2nc(-c3cc4ccsc4n3CC(F)(F)F)n(C)c12 [Compound 21, (R)-(3-aminopiperidin-1-yl)(7-methoxy-1-methyl-2-(6-(2,2,2-trifluoroethyl)-6H-thieno[2,3-b]pyrrol-5-yl)-1H-benzo[d]imidazol-5-yl)methanone]	2.97	7.8	–	–	–
COc1cc(C(=O)N2CCC[C@@H](N)C2)cc2nc(-c3cc4ccsc4n3CC3CCC3)n(C)c12 [Compound 22, (R)-(3-aminopiperidin-1-yl)(2-(6-(cyclobutylmethyl)-6H-thieno[2,3-b]pyrrol-5-yl)-7-methoxy-1-methyl-1H-benzo[d]imidazol-5-yl)methanone]	–	–	2.68	8.6	–
